Measured values published in the NIST ThermoML archive (doi:10.1016/j.tca.2006.10.012).
± gives the expanded uncertainty stated by the source.

Conditions: 300 K; 101.33 kPa; Crystal; Coaxial cylinder method

[BH3-][NH3+] [ammonia borane]
thermal conductivity: 15 ± 3 W/m/K
